{"source": "paper PMC4806436", "about": "“Disrupted ADP-ribose metabolism with nuclear Poly (ADP-ribose) accumulation leads to different cell death pathways in presence of hydrogen peroxide in procyclic Trypanosoma brucei” (Parasites & Vectors, 2016)", "key": {"[1]": {"system": "wild type procyclic parasites", "assay": "Annexin V / PI flow cytometric cell death analysis", "assay_type": "cell-based, Trypanosoma brucei", "conditions": "10 μg/mL, apoptosis-like positive control", "experimental": "Parasites were treated with 1 mM H2O2 for different time intervals and the cell death pathway involved was assessed as it has been detailed in our previous work. The exposure of wild type procyclic parasites for 6 and 12 h to 10 μg/mL Concanavalin A type IV (Sigma-Aldrich) confirmed the apoptosis-like death pathway (positive control). […] Results were analyzed with Cyflogic v 1.2.1 software."}, "[2]": {"system": "PAR formation in bloodstream T. brucei", "assay": "In culture inhibition of PAR formation after H2O2, Dot blot, bloodstream form", "assay_type": "cell-based, Trypanosoma brucei", "conditions": "inhibitor at 10-fold in vitro IC50 (29 nM Olaparib; 1.5 μM Rucaparib), 10 min preincubation, 250 μM H2O2", "experimental": "(§1) T. brucei procyclic strain 29–13 [29] was cultured at 28 °C in SDM-79 (Bioscience) containing 10 % (v/v) FCS and 0002 % hemin. T. brucei bloodstream strain 427 90-13 [29] was cultured at 37 °C in HMI-11 (Iscore’s Modified Dulbecco’s Medium (Invitrogen), 100 mg/L sodium pyruvate, 136.1 mg/L hypoxantine, 38.7 mg/L thymidine, 28.22 mg/L bathocuproinedisulfonic acid, 181.8 mg/L L-cysteine, 3.024 mg/L sodium carbonate, 196 μM β-mercaptoethanol) containing FCS (10 % v/v). Parasite viability was analyzed by microscopy.\n(§2) For in culture inhibition assays, parasites of the procyclic form of Trypanosoma brucei were grown for 48 h up to a density of 5×10^6 parasites/mL. Parasites of the bloodstream form were grown for 24 h up to a density of 5×10^5 parasites/mL. In both cases, cells were harvested and preincubated for 30 min or 10 min in PBS-Glucose 2 % with inhibitors added, after which the parasites were treated with 500 μM or 250 μM hydrogen peroxide for procyclic and bloodstream forms, respectively, for 10 min."}, "[3]": {"target": "TbPARP (Trypanosoma brucei brucei, UniProt Q0PW89)", "sequence (Q0PW89 entry or part of it)": "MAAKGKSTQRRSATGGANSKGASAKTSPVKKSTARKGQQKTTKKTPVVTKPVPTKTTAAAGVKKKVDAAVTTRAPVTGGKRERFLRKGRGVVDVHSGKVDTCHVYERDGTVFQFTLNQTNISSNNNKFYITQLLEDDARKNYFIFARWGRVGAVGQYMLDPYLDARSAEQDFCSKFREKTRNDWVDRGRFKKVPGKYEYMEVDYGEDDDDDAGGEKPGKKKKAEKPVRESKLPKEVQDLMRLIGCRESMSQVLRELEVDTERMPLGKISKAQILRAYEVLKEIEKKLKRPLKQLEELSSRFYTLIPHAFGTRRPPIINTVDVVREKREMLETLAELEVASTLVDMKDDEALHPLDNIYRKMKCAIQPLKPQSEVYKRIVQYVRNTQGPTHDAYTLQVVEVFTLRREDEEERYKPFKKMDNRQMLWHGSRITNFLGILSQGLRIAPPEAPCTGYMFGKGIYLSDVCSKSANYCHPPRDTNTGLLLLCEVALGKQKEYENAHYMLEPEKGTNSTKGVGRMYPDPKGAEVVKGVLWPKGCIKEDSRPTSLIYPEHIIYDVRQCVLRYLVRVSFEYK", "assay": "biochemical", "conditions": "5 nM TbPARP, 500 nM NAD+, 11 min at 25 °C, mean of three dose-response curves", "experimental": "The optimal conditions for the activity of purified recombinant TbPARP, were determined by using a fluorometric activity assay. Incubation at 25 °C with shaking at 300 rpm was placed in propylene plates of 96 wells (Greiner BioOne). To terminate the reaction 2 M KOH (20 μL) and 20 % acetophenone in ethanol (20 μL) were added to each well. After incubating for 10 min at 4 °C, 90 μl of 88 % formic acid was added and incubated in an oven at 110 °C for 5 min. This reaction converts remaining NAD^+ to a fluorescent derivative. After incubation, the plate was allowed to cool down for 15 min and fluorescence was measured using excitation wavelengths of 372 nm and 444 nm for excitation and emission, respectively (Varioskan Flash 4.00.53, Thermo Scientific). Consumption of NAD^+ was detected by the decrease in fluorescence. Experiments were done in triplicates. The activity in control wells were kept under 25 % by optimizing the protein concentration and the incubation time, in order to get a robust signal without slowing down the enzyme activity.\nA small set of cations was also tested in order to verify whether the enzymatic activity would depend on them. […] The final assay buffer was 100 mM Na2HPO4/NaH2PO4 pH 7, 500 μM TCEP, 1 μg/μL BSA, and 0.025 mg/mL activated DNA (Sigma Aldrich) and 500 nM NAD^+ (Sigma Aldrich).\nThirty - one compounds were tested. Dilutions from DMSO stocks were made (100 μM, 10 μM and 1 μM) and aliquots of those were used in the enzymatic reaction with 10-fold dilution. Inhibitor solutions were added in triplicates to the plate, followed by the addition of the NAD^+. Reactions were initiated by addition of TbPARP diluted in the same buffer (10 nM). The plate was incubated at 25 °C with shaking (300 rpm, Biosan PST-100 HL) for 45 min. […] To detect any potential fluorescence inherent in the compounds, control reactions were carried out separately with compound alone at 10 μM final concentration. The possible fluorescence quenching properties were controlled using wells within the experimental plate containing the compound with 500 nM NAD^+ in the assay buffer.\nThe IC50 value for 3-AB (Alexis Biochemicals) was also determined to be used as a reference. Briefly, reaction mix together with the inhibitors at half log dilutions were added to a 96-well plate (10 data points). Reactions were incubated for 11 min at 25 °C after initiating the reaction with the addition of 5 nM TbPARP at a final volume of 50 μL. Measurement of the remaining NAD^+ is described in section Screening of TbPARP inhibitors. All reactions were performed in triplicates and three independent dose response curves were fitted for each inhibitor. Control wells with only NAD^+ or NAD^+ and enzyme were used in the curve fitting, as detailed in our previous work."}, "[4]": {"system": "TcPARP", "parameters": "method as in PMID 23049934", "conditions": "read-out: potency towards TcPARP; cited from earlier work"}, "[5]": {"system": "Trypanosoma brucei procyclic parasites", "assay": "Effect of inhibitors on procyclic parasite growth (OD600, 48 h)", "assay_type": "cell-based", "experimental": "Trypanosoma brucei procyclic parasites were grown in SDM-79 medium for 48 h until reaching a density of 5×10^6 cells/mL. Aliquots of 200 μl were distributed in 96-well plates and inhibitors were present at different final concentrations, as indicated in the figures. Nifurtimox (NFX) was used as a positive control in concentrations ranging from 0.25–25 μM. Culture density was checked by OD600 after 48 h.\nIn all experiments, triplicates were done for each condition tested and data significance was assessed by one-way Anova (GraphPad Prism5.03 version Software)."}, "[6]": {"system": "PAR formation in procyclic T. brucei", "assay": "In culture inhibition of PAR formation after H2O2, Dot blot, procyclic form", "assay_type": "cell-based, Trypanosoma brucei", "conditions": "inhibitor at 10-fold in vitro IC50 (0.23 μM 4-ANI; 65 nM EB-47; 29 nM Olaparib; 1.5 μM Rucaparib), 30 min preincubation, 500 μM H2O2 10 min", "experimental": "as §1, §2"}, "[7]": {"system": "Trypanosoma brucei bloodstream parasites", "assay": "Effect of inhibitors on bloodstream parasite growth (Neubauer count, 24 h)", "assay_type": "cell-based", "conditions": "Olaparib 29 nM, Rucaparib 1.5 μM, 3-AB 580 μM, Nifurtimox 2.5 μM", "experimental": "Trypanosoma brucei bloodstream parasites were grown in HMI-11 medium for 24 h until reaching a density of 5×10^5 cells/mL. Aliquots of 100 μL were distributed in 96-well plates and inhibitors were added at different concentrations as indicated in the figures. After an incubation period of 24 h, the parasite number was counted with a Neubauer chamber. In all experiments, triplicates were done for each condition tested and data significance was assessed by one-way Anova (GraphPad Prism5.03 version Software)."}, "[8]": {"system": "RNAi-TbPARP procyclic parasites", "assay": "Growth of Tet induced RNAi-TbPARP procyclic parasites with inhibitor", "assay_type": "cell-based, Trypanosoma brucei", "conditions": "290 nM inhibitor", "source_text": "A fragment of the TbPARP cDNA (nucleotides 1030 to 1445) [GenBank:DQ679800, Tb927.5.3050] and a fragment of the TbPARG cDNA (nucleotides 593 to 979) [Tb927.9.12810] were sub-cloned into the tetracycline-inducible expression vector p2T7^TI-177 [30] to down-regulate the genes of interest. In addition, whole TbPARP cDNA sequence was sub-cloned into the expression vector p2216 [31] (PCR primer sequences available upon request) to over-express the PARP-eYFP fusion gene.\nNot I-linearized RNAi-TbPARP and RNAi-TbPARG constructs and the over-expression construct (10 μg) were transfected into procyclic parasites by electroporation, as described by Downey et al.. The selection of the transfectants was carried out with 20 μg/mL zeocin, and dsRNA and over-expression of the fusion protein was induced with 1.0 μg/mL tetracycline for 3 days."}, "[9]": {"system": "T. cruzi epimastigotes", "conditions": "25 nM; cited from earlier work"}, "[10]": {"system": "T. brucei procyclic parasites", "assay": "Cell survival (motility) after H2O2 treatment with PARP inhibitor", "conditions": "29 nM inhibitor", "quoted_text": "Cell survival was determined by incubating 500 μL of 1 × 10^6 parasites/mL culture in 24-well cell culture plates (Cellstar) for 6 h with different concentrations of H2O2 (30 μM, 95 μM, 300 μM and 950 μM) and counting motile parasites over the total number using a Neubauer chamber. Each condition was tested in triplicates. Statistical significance was assessed with two-way Anova followed by Bonferroni test (version 5.03 of GraphPad Prism for Windows)."}, "[11]": {"conditions": "read-out: TbPARP pIC50 ± SEM (converted)"}}, "note": "“Also recorded” adds a separate entry of the source. Where two headings read alike, the source gives them in different places."}
{"compound": "Concanavalin A", "values": [{"measurement": "cell death pattern (Annexin V incorporation)", "setting": "[1]", "value": "typical apoptosis response with an increment in Annexin incorporation"}]}
{"compound": "CNCc1ccc(-c2[nH]c3cc(F)cc4c3c2CCNC4=O)cc1", "note": "[Rucaparib, 6-fluoro-2-{4-[(methylamino)methyl]phenyl}-3,10-diazatricyclo[6.4.1.0^{4,13}]trideca-1,4(13),5,7-tetraen-9-one]", "values": [{"measurement": "inhibition of PAR formation in culture, bloodstream form", "setting": "[2]", "value": "able to inhibit PAR formations in culture; also recorded: able to reduce PAR formation"}, {"measurement": "IC50", "setting": "[3]; read-out: TbPARP IC50", "value": 150, "unit": "nM"}, {"measurement": "IC50", "setting": "[3]; [11]", "value": 148, "unit": "nM"}, {"measurement": "IC50", "setting": "[4]", "value": 25, "unit": "nM"}, {"measurement": "impact on growth rate of procyclic parasites", "setting": "[5]; 15 μM (highest concentration)", "value": "visible impact on the growth rate"}, {"measurement": "decrease in procyclic parasite growth", "setting": "[5]; 15 μM, 48 h", "value": 20, "unit": "%"}, {"measurement": "inhibition of PAR formation in culture, procyclic form", "setting": "[6]", "value": "inhibited PAR formation in culture; also recorded: able to reduce PAR formation"}, {"measurement": "effect on bloodstream parasite growth", "setting": "[7]", "value": "not able to significantly affect T. brucei growth or survival"}]}
{"compound": "O=C(c1cc(Cc2n[nH]c(=O)c3ccccc23)ccc1F)N1CCN(C(=O)C2CC2)CC1", "note": "[Olaparib, 4-({3-[(4-cyclopropanecarbonylpiperazin-1-yl)carbonyl]-4-fluorophenyl}methyl)-1,2-dihydrophthalazin-1-one]", "values": [{"measurement": "inhibition of PAR formation in culture, bloodstream form", "setting": "[2]", "value": "able to inhibit PAR formations in culture; also recorded: able to reduce PAR formation"}, {"measurement": "IC50", "setting": "[3]; read-out: TbPARP IC50", "value": 2.9, "unit": "nM"}, {"measurement": "IC50", "setting": "[3]; [11]", "value": 2.95, "unit": "nM"}, {"measurement": "growth rate of Tet induced RNAi-TbPARP procyclic parasites", "setting": "[8]", "value": "no change in growth rate"}, {"measurement": "decrease in growth of T. cruzi epimastigotes in culture", "setting": "[9]", "value": 50, "unit": "%"}, {"measurement": "inhibition of PAR formation in culture, procyclic form", "setting": "[6]", "value": "inhibited PAR formation in culture; also recorded: able to reduce PAR formation"}, {"measurement": "parasite viability (motility) in presence versus absence of inhibitor", "setting": "[10]; 30 μM H2O2, 6 h", "value": "no difference in parasite viability"}, {"measurement": "parasite viability (motility) in presence versus absence of inhibitor", "setting": "[10]; 95 μM H2O2, 6 h", "value": "reduced the loss of viability induced by the oxidant"}, {"measurement": "parasite motility in presence versus absence of inhibitor", "setting": "[10]; 300 μM H2O2, 6 h, not statistically significant", "value": "slight protective effect"}, {"measurement": "effect on bloodstream parasite growth", "setting": "[7]", "value": "not able to significantly affect T. brucei growth or survival"}]}
